Laboratory results from patent US20260200923A1, “HETEROCYCLIC COMPOUNDS TARGETING THE NUDT5 PROTEIN” (Oxford University Innovation Limited, priority 2022, published 2026).

Key:
NUDT5 = NUDT5 (Homo sapiens, UniProt Q9UKK9); assay: AMP-Glo catalytic assay, NUDT5; type: biochemical; conditions: 2 nM NUDT5, ADPr substrate, 20 minutes, mean±SD
Method: (§1) To identify alternative X groups, a screening exercise was performed. […] Inhibition activities of the compounds were determined using AMP-Glo system (Promega). The compounds were diluted from 50 μM to 0 μM in a final reaction containing 20 mM Hepes, 100 mM NaCl, 0.5 mM TCEP, 1 mM MgCl2 and 0.1% BSA, pH 7.4. The reactions were performed in 1536 well plate in […] reaction volume with 2 nM of NUDT5 and NUDT14, and […] of ADPr as the substrate. The final DMSO concentration was 0.5% for all reactions. NUDT5 reactions were incubated for 20 minutes while NUDT14 reactions were carried out for 1 hour at room temperature. […] The reactions were further incubated with the 4 μl of Detection solution for 1 hour at room temperature. Luminescence signals were then measured in PHERAstar FSX plate reader. Experiments were done in triplicate sets and data were analysed by GraphPad Prism 9. Data are represented as the mean±SD of three biological experiments: […]

NUDT14 = molecular target: T1, NUDT14 (Homo sapiens, UniProt O95848); assay: AMP-Glo catalytic assay, NUDT14; type: biochemical
T1 sequence (O95848 1-222): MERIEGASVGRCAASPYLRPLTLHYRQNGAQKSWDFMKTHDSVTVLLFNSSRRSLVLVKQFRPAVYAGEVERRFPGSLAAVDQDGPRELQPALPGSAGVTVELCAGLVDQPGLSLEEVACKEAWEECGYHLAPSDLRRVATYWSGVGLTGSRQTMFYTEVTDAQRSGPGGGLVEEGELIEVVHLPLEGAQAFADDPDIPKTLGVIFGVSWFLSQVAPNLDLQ
Method: as §1

MTHFD1^K56R cells = assay: growth of MTHFD1^K56R cells in adenosine-containing media; type: cell-based
Method: HAP1 (KBM7-derived, Horizon Discovery, C859), and HAP1 MTHFD1^KO, MTHFD1^K56R, and MTHFD1^K386E cell lines were cultured in Iscove's Modified Dulbecco's Medium (IMDM, Sigma), supplemented with 10% Fetal Bovine Serum (FBS, Sigma) and 1% Penicillin/Streptomycin (P/S, Sigma).
MTHFD1^KO cells in dialyzed FBS media were treated with a single nucleotide or folic acid metabolite for 72 hours. Cells were then stained with Hoechst, imaged, and counted using an Operetta (Perkin Elmer). For the AMPK activator studies, cells were stained with Hoechst, imaged, and counted using an Opera (Perkin Elmer). Similarly, MTHFD1^K56R cells in dialyzed FBS media were treated with adenosine for 72 hours. Cells were then stained with Hoechst, imaged, and counted using an Operetta (Perkin Elmer).

MTHFD1^K386E cells = assay: growth of MTHFD1^K386E cells with adenosine; type: cell-based; conditions: synthetase mutant cells
Method: HAP1 (KBM7-derived, Horizon Discovery, […]), and HAP1 MTHFD1^KO, MTHFD1^[…], and MTHFD1^[…] cell lines were cultured in Iscove's Modified Dulbecco's Medium (IMDM, Sigma), supplemented with 10% Fetal Bovine Serum (FBS, Sigma) and 1% Penicillin/Streptomycin (P/S, Sigma).

luciferase-tagged NUDT5 = molecular target: T2, luciferase-tagged NUDT5 (Homo sapiens, UniProt Q9UKK9); assay: NanoBRET target engagement assay; type: cell-based; conditions: live cells, 2 h
T2 construct: expressed in transfected cells; host or cells: HEK293T
Method: For NanoBRET target engagement assay, intracellular TE Nano-Glo substrate/inhibitor (N2161, Promega) was used according to the manufacturer's instruction. In brief, 200,000 HEK293T cells/ml was seeded in a T-75 flask. N-terminal NanoLuciferse NUDT5 was reverse transfected into the cells using Fugene HD transfection reagent (E2312, Promega). After 24 h the transfected HEK293 (200,000 cells/ml) were replated onto a 384-well plate containing compounds. 2.5 nM NU008116a was used as the final tracer concentration. After 2 h, NanoLuc substrate and inhibitor was added into each well and the signals were measured by PHERAstar Microplate Reader.
Compounds were dispensed in the 384-well plates by using Echo Acoustic Dispenser.

HAP-1 cells = assay: 6-thioguanine assay (CellTiter-Glo viability); type: cell-based; conditions: 0.2 μg/ml 6-thioguanine, 72 h; HAP1 (and NB4, FIG. 11)
Method: NB-4 and HAP1 cells (1000 cells/well in 40 uL) were seeded onto a 384-well plate containing compounds. DMSO or 0.2 μg/ml 6-thioguanine (A4882, Sigma-Aldrich) was added into respective wells. After 72 h incubation cell viability was measured by using CellTiter-Glo 2.0 Assay (G9242, Promega). Compounds in the 384-well plates were prepared by using Echo Acoustic Dispenser.

C=CC(=O)N1CCC[C@@H](n2nc(-c3ccc(Oc4ccccc4)cc3)c3c(N)ncnc32)C1 [Ibrutinib, reference compound]
IC50 (NUDT5): 0.375 ± 0.012 µM
IC50 (NUDT14): 0.974 ± 0.026 µM

Nc1ncnc2c1ncn2[C@@H]1O[C@H](CO)[C@@H](O)[C@H]1O [adenosine]
effect of addition on proliferation (MTHFD1^K56R cells; cyclohydrolase mutant cells, 50 μM adenosine): caused a strong antiproliferative response
effect of addition on growth (MTHFD1^K386E cells): enhanced the growth

CN1C(=O)CCC(N2C(=O)c3ccc(N4CCN(CC5CCN(C(=O)N6CCN(c7nc8c(c(=O)n(C)c(=O)n8C)n7Cc7nnc(-c8ccc(Cl)c(Cl)c8)o7)CC6)CC5)CC4)cc3C2=O)C1=O (stereo not shown) [dNUDT5nc, 7-((5-(3,4-dichlorophenyl)-1,3,4-oxadiazol-2-yl)methyl)-1,3-dimethyl-8-(4-(4-((4-(2-(1-methyl-2,6-dioxopiperidin-3-yl)-1,3-dioxoisoindolin-5-yl)piperazin-1-yl)methyl)piperidine-1-carbonyl)piperazin-1-yl)-3,7-dihydro-1H-purine-2,6-dione]
NUDT5 engagement / recruitment (luciferase-tagged NUDT5): engaged their cognate target NUDT5 in live cells
effect on adenosine toxicity / viability (MTHFD1^K56R cells; adenosine-containing media, 72 h): did not cause any effects
rescue of 6-TG toxicity (HAP-1 cells): neither the negative control nor TH5427 gave any significant effects
